Experimental data from patent US20260207563A1, “UREA COMPOUNDS AS ACTIVATORS OF POTASSIUM CHANNELS KV7.2/7.3 USEFUL IN THE TREATMENT OF CNS AND PNS DISORDERS” (ANGELINI PHARMA S.P.A., priority 2022, published 2026).

Tests used:
Format in all cases: cell-based
[1] = biological target: T1, homomeric KV7.4 channel (KCNQ4) (Homo sapiens, UniProt P56696); experiment: Automated patch-clamp (Qube) counter-screening assay against KV7.4 channel; settings: CHO-K1 cells expressing KV7.4; class by maximal shift in the Vhalf at 30 μM
T1 construct: host or cells: CHO-K1
Outline: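 EC50 and maximal shift in half-activation voltage come from 4-parameter logistic fits of mean Vhalf shifts. The series had ten 1-in-3 concentrations, highest 30 μM, each tested in quadruplicate. Recordings used automated Qube patch clamp on a stable CHO-K1 line expressing KCNQ4, and selectivity was judged from the 30 μM Vhalf shift.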

[2] = biological target: T2, heteromeric KV7.2/KV7.3 channels (KCNQ2, KCNQ3) (Homo sapiens, UniProt O43525+O43526); experiment: Automated patch-clamp (Sophion Qube 384) potency assay against KV7.2/KV7.3 channels; settings: CHO-K1/Kv7.2/Kv7.3 cells; for EC50: EC50 from concentration-response of shift in Vhalf, 10 concentrations up to 30 μM, read-out: Kv7.2/7.3 EC50; for Kv7.2/7.3 ΔV1/2: maximal shift in the Vhalf from the top of the curve
T2 construct: expressed in transfected cells; host or cells: CHO-K1
Outline: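 Activator potency: EC50 from 4-parameter logistic fit of mean Vhalf shift across ten 1-in-3 dilutions starting at 30 μM (n=4), with DMSO (typically 0.3%) control. Currents recorded by leak-subtracted whole-cell clamp of stable CHO-K1 KV7.2/KV7.3 cells, held at −80 mV, stepped −100 to +20 mV then 0 mV tails.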

[3] = biological target: T3, heteromeric KV7.3/KV7.5 channel (KCNQ3, KCNQ5) (Homo sapiens, UniProt O43525+Q9NR82); experiment: Automated patch-clamp counter-screening against KV7.3/KV7.5 channel; settings: HEK293 cells expressing Kv7.3/KV7.5; class by maximal shift in the Vhalf at 30 μM
T3 construct: host or cells: HEK293
Outline: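 Potency came from a 4-parameter logistic fit of mean voltage-of-half-activation shifts, yielding EC50 and maximal shift; selectivity was judged on the shift at 30 μM. Compounds were applied at ten 3-fold dilutions from 30 μM in quadruplicate to HEK293 cells stably carrying Kv7.3 with tet-inducible Kv7.5.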

| EC50 [2] [nM] | Kv7.2/7.3 ΔV1/2 [2] [mV] | Structure (SMILES) | Kv7.4 selectivity criteria [1] | Kv7.3/7.5 selectivity criteria [3] |
| --- | --- | --- | --- | --- |
| 820 | 19.56 | Cc1ccccc1CNC(=O)NCc1ccnc(OCC(F)(F)F)c1 [Compound 37, 1-(2-Methylbenzyl)-3-((2-(2,2,2-trifluoroethoxy)pyridin-4-yl)methyl)urea] | A (Selective compounds showed Kv7.4 and/or Kv7.3/7.5 ΔV1/2 equal to or lower than 15 mV (letter A in table 3)) | A (Selective compounds showed Kv7.4 and/or Kv7.3/7.5 ΔV1/2 equal to or lower than 15 mV (letter A in table 3)) |
| 2020 | 28.31 | O=C(NCCC1(C(F)(F)F)CC1)NCc1cc(OCC(F)(F)F)ncn1 [Compound 38, 1-((6-(2,2,2-Trifluoroethoxy)pyrimidin-4-yl)methyl)-3-(2-(1-(trifluoromethyl)cyclopropyl)ethyl)urea] | A (Selective compounds showed Kv7.4 and/or Kv7.3/7.5 ΔV1/2 equal to or lower than 15 mV (letter A in table 3)) | A (Selective compounds showed Kv7.4 and/or Kv7.3/7.5 ΔV1/2 equal to or lower than 15 mV (letter A in table 3)) |
| 1470 | 21.29 | Cc1cc(CNC(=O)NCCC2(C(F)(F)F)CC2)cc(OCC(F)(F)F)n1 [Compound 39, 1-((2-Methyl-6-(2,2,2-trifluoroethoxy)pyridin-4-yl)methyl)-3-(2-(1-(trifluoromethyl)cyclopropyl)ethyl)urea] | A (Selective compounds showed Kv7.4 and/or Kv7.3/7.5 ΔV1/2 equal to or lower than 15 mV (letter A in table 3)) | A (Selective compounds showed Kv7.4 and/or Kv7.3/7.5 ΔV1/2 equal to or lower than 15 mV (letter A in table 3)) |
| 428 | 29.72 | CC(C)(CCNC(=O)NCc1ccnc(OCC(F)(F)F)c1)C(F)(F)F [Compound 41, 1-(4,4,4-Trifluoro-3,3-dimethylbutyl)-3-((2-(2,2,2-trifluoroethoxy)pyridin-4-yl)methyl)urea] | A (Selective compounds showed Kv7.4 and/or Kv7.3/7.5 ΔV1/2 equal to or lower than 15 mV (letter A in table 3)) | A (Selective compounds showed Kv7.4 and/or Kv7.3/7.5 ΔV1/2 equal to or lower than 15 mV (letter A in table 3)) |
| 872 | 16.7 | O=C(NCc1cccc(F)c1)NCc1ccnc(OCC(F)(F)F)c1 [Compound 42, 1-(3-Fluorobenzyl)-3-((2-(2,2,2-trifluoroethoxy)pyridin-4-yl)methyl)urea] | A (Selective compounds showed Kv7.4 and/or Kv7.3/7.5 ΔV1/2 equal to or lower than 15 mV (letter A in table 3)) | A (Selective compounds showed Kv7.4 and/or Kv7.3/7.5 ΔV1/2 equal to or lower than 15 mV (letter A in table 3)) |
| 765 | 53.72 | O=C(NCc1ccnc(OCC(F)(F)F)c1)NC1CCCCC1 [Compound 43, 1-Cyclohexyl-3-((2-(2,2,2-trifluoroethoxy)pyridin-4-yl)methyl)urea] | B (Non-selective compounds showed Kv7.4 and/or Kv7.3/7.5 ΔV1/2 higher than 15 mV (letter B in table 3)) | B (Non-selective compounds showed Kv7.4 and/or Kv7.3/7.5 ΔV1/2 higher than 15 mV (letter B in table 3)) |
| 6300 | 17.02 | O=C(NCCC1(C(F)(F)F)CC1)NCc1ccnc(N2CC(C(F)(F)F)C2)c1 [Compound 44, 1-((2-(3-(Trifluoromethyl)azetidin-1-yl)pyridin-4-yl)methyl)-3-(2-(1-(trifluoromethyl)cyclopropyl)ethyl)urea] | A (Selective compounds showed Kv7.4 and/or Kv7.3/7.5 ΔV1/2 equal to or lower than 15 mV (letter A in table 3)) | A (Selective compounds showed Kv7.4 and/or Kv7.3/7.5 ΔV1/2 equal to or lower than 15 mV (letter A in table 3)) |
